Experiments:
[1] = (§1) The drug is tested on Z-029 corresponding to rat gut metagenome with ENA study accession number: PRJEB37062 and ENA sample accession number: ERS12561828 for biotransformation under anaerobic condition. The drug concentrations were measured over 9 timepoints collected between 0 and 24 hours of incubation by liquid-chromatography-coupled mass spectrometry (LC–MS); settings: 2 µM
[2] = as §1, with “on WLS-086” for “on Z-029”, “to human” for “to rat”, “number: ERS12561752” for “number: ERS12561828”; settings: 2 µM
[3] = as §1, with “Z-008” for “Z-029”, “to” for “to rat gut”, “ERS12561808” for “ERS12561828”; settings: 2 µM
[4] = human gut metagenome, 24 h, 2 µM
[5] = human gut metagenome, 24 h, 2 µM; remark: listed apart in the source
[6] = human gut metagenome, 24 h, 2 µM; remark: listed apart in the source
[7] = human gut metagenome, 24 h, 2 µM; remark: listed apart in the source
[8] = human gut metagenome, 24 h, 2 µM; remark: listed apart in the source
[9] = as §1, with “Z-012” for “Z-029”, “to” for “to rat gut”, “ERS12561812” for “ERS12561828”; settings: 2 µM
[10] = human gut metagenome, 24 h, 2 µM; remark: listed apart in the source
[11] = as §1, with “on WLS-350” for “on Z-029”, “to human” for “to rat”, “number: ERS12561789” for “number: ERS12561828”; settings: 2 µM
[12] = human gut metagenome, 24 h, 2 µM; remark: listed apart in the source
[13] = as §1, with “Z-023” for “Z-029”, “to” for “to rat gut”, “ERS12561822” for “ERS12561828”; settings: 2 µM
[14] = human gut metagenome, 24 h, 2 µM; remark: listed apart in the source
[15] = human gut metagenome, 24 h, 2 µM; remark: listed apart in the source
[16] = as §1, with “Z-007” for “Z-029”, “ERS12561807” for “ERS12561828”; settings: 2 µM
[17] = as §1, with “on Z-003” for “on Z-029”, “to pig” for “to rat”, “number: ERS12561803” for “number: ERS12561828”; settings: 2 µM
[18] = as §1, with “on Z-024” for “on Z-029”, “to pig” for “to rat”, “number: ERS12561823” for “number: ERS12561828”; settings: 2 µM
[19] = as §1, with “on WLS-069” for “on Z-029”, “to human” for “to rat”, “number: ERS12561748” for “number: ERS12561828”; settings: 2 µM
[20] = human gut metagenome, 24 h, 2 µM; remark: listed apart in the source
Further: call rule not given here.

Row | Bacterial Biotransformation [1] | Bacterial Biotransformation [2] | Bacterial Biotransformation [3] | Bacterial Biotransformation [4] | Bacterial Biotransformation [5] | Bacterial Biotransformation [6] | Bacterial Biotransformation [7] | Bacterial Biotransformation [8] | Bacterial Biotransformation [9] | Bacterial Biotransformation [10] | Bacterial Biotransformation [11] | Bacterial Biotransformation [12] | Bacterial Biotransformation [13] | Bacterial Biotransformation [14] | Bacterial Biotransformation [15] | Bacterial Biotransformation [16] | Bacterial Biotransformation [17] | Bacterial Biotransformation [18] | Bacterial Biotransformation [19] | Bacterial Biotransformation [20] | Structure (SMILES)
1 | Compound NOT metabolized | Compound metabolized | Compound NOT metabolized | Compound metabolized | Compound NOT metabolized | Compound NOT metabolized | Compound NOT metabolized | Compound NOT metabolized | Compound NOT metabolized | Compound NOT metabolized | Compound NOT metabolized | Compound NOT metabolized | Compound metabolized | Compound NOT metabolized | Compound metabolized | Compound NOT metabolized | Compound NOT metabolized | Compound metabolized | Compound NOT metabolized | Compound NOT metabolized | CCCc1nn(C)c2c(=O)[nH]c(-c3cc(S(=O)(=O)N4CCN(C)CC4)ccc3OCC)nc12.O=C(O)CC(O)(CC(=O)O)C(=O)O [SILDENAFIL CITRATE]
2 | Compound NOT metabolized | Compound NOT metabolized | Compound NOT metabolized | Compound NOT metabolized | Compound NOT metabolized | Compound NOT metabolized | Compound NOT metabolized | Compound NOT metabolized | Compound NOT metabolized | Compound NOT metabolized | Compound metabolized | Compound NOT metabolized | Compound metabolized | Compound NOT metabolized | Compound NOT metabolized | Compound NOT metabolized | Compound NOT metabolized | Compound metabolized | Compound NOT metabolized | Compound metabolized | CN1C(C(=O)Nc2ccccn2)=C(O)c2sccc2S1(=O)=O [TENOXICAM]
3 | Compound NOT metabolized | Compound metabolized | Compound NOT metabolized | Compound metabolized | Compound NOT metabolized | Compound NOT metabolized | Compound metabolized | Compound NOT metabolized | Compound NOT metabolized | Compound metabolized | Compound metabolized | Compound NOT metabolized | Compound NOT metabolized | Compound NOT metabolized | Compound metabolized | Compound NOT metabolized | Compound metabolized | Compound metabolized | Compound metabolized | Compound NOT metabolized | O=c1n(CCCN2CCN(c3cccc(Cl)c3)CC2)nc2ccccn12 [TRAZODONE]

Continued, compound first:

Row | Structure (SMILES) | Bacterial Biotransformation [1] | Bacterial Biotransformation [2] | Bacterial Biotransformation [3] | Bacterial Biotransformation [4] | Bacterial Biotransformation [5] | Bacterial Biotransformation [6] | Bacterial Biotransformation [7] | Bacterial Biotransformation [8] | Bacterial Biotransformation [9] | Bacterial Biotransformation [10] | Bacterial Biotransformation [11] | Bacterial Biotransformation [12] | Bacterial Biotransformation [13] | Bacterial Biotransformation [14] | Bacterial Biotransformation [15] | Bacterial Biotransformation [16] | Bacterial Biotransformation [17] | Bacterial Biotransformation [18] | Bacterial Biotransformation [19] | Bacterial Biotransformation [20]
4 | OC(CCN1CCCCC1)(c1ccccc1)C1CCCCC1 (stereo not given) [TRIHEXYPHENIDYL] | Compound NOT metabolized | Compound metabolized | Compound NOT metabolized | Compound NOT metabolized | Compound metabolized | Compound metabolized | Compound NOT metabolized | Compound metabolized | Compound NOT metabolized | Compound metabolized | Compound NOT metabolized | Compound NOT metabolized | Compound metabolized | Compound NOT metabolized | Compound NOT metabolized | Compound NOT metabolized | Compound metabolized | Compound metabolized | Compound metabolized | Compound NOT metabolized
5 | Cc1cn([C@H]2C[C@H](N=[N+]=[N-])[C@@H](CO)O2)c(=O)[nH]c1=O [ZIDOVUDINE] | Compound metabolized | Compound NOT metabolized | Compound NOT metabolized | Compound NOT metabolized | Compound NOT metabolized | Compound metabolized | Compound NOT metabolized | Compound NOT metabolized | Compound metabolized | Compound NOT metabolized | Compound NOT metabolized | Compound NOT metabolized | Compound NOT metabolized | Compound NOT metabolized | Compound metabolized | Compound metabolized | Compound NOT metabolized | Compound NOT metabolized | Compound NOT metabolized | Compound NOT metabolized
